This note sets out measurements from ChEMBL document CHEMBL5131504, “Anthraquinone derivatives as ADP-competitive inhibitors of liver pyruvate kinase” (Eur J Med Chem, 2022).

In assay [1] the target is T1, Pyruvate kinase PKLR (Homo sapiens, UniProt P30613). Kind of assay: Inhibition of PKL (unknown origin) at 10 uM for 30 mins by Kinase-Glo Max reagent based luminescence assay.
Target sequence in this assay (P30613 whole entry, looked up): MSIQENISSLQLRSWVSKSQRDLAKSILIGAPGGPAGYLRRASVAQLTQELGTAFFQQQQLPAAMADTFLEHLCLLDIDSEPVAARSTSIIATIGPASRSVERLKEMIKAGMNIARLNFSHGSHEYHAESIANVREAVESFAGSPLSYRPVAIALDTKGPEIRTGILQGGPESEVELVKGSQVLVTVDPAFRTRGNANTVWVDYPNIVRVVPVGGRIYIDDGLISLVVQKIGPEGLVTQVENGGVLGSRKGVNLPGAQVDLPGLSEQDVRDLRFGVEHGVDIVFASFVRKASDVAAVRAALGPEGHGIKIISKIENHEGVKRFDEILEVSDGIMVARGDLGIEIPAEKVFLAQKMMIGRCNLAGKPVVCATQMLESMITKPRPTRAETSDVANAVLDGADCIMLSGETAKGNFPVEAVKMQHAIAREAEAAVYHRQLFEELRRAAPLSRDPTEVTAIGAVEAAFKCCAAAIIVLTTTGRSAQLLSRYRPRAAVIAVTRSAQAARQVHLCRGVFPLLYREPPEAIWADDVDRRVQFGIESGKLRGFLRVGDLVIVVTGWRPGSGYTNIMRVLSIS
The target in assay [2] is T1, Pyruvate kinase PKLR. Kind of assay: Inhibition of PKL in human PKM2 knockout HepG2 cells at 10 uM incubated for 5 mins by Microplate reader based analysis relative to control. Format: cell-based.
Target sequence in this assay (P30613 whole entry, looked up): as above
The target in assay [3] is T1, Pyruvate kinase PKLR. Kind of assay: Inhibition of PKL (unknown origin) for 30 mins by Kinase-Glo Max reagent based luminescence assay. In general terms: In Kinase-Glo more light means more ATP remaining.
Target sequence in this assay (P30613 whole entry): as the sequence (P30613 whole entry, looked up) above

Each structure is given as a SMILES string.

Consider `O=C1c2ccccc2C(=O)c2cc(S(=O)(=O)N3CCN(C(=O)CC(O)(C(=O)O)C(=O)O)CC3)c(O)cc21`, for which the inhibition (usually the drop in the measured response relative to a control, in per cent) is 63% at Pyruvate kinase PKLR [1] and 22.6% at Pyruvate kinase PKLR [2].

`COC[C@H](NS(=O)(=O)c1cc2c(c(O)c1O)C(=O)c1ccccc1C2=O)C(=O)O`: the IC50 (commonly the point on the concentration scale where inhibition reaches its midpoint) against Pyruvate kinase PKLR [3] turned out to be 1.2 µM. For the same molecule, the inhibition at Pyruvate kinase PKLR [1] turned out to be 101%.

Take `O=C1c2ccccc2C(=O)c2c1cc(C(=O)N1CCNCC1)c(O)c2O`: the inhibition against Pyruvate kinase PKLR [1] was determined as 22%.

Regarding `O=C(O)Cc1ccc(CNc2cc3c(cc2O)C(=O)c2ccccc2C3=O)cc1C(=O)O`, the inhibition against Pyruvate kinase PKLR [1] amounted to 94%; against Pyruvate kinase PKLR [2], 50.2%.

Consider `O=C(O)CC(O)(CC(=O)N1CCN(C(=O)c2cc3c(c(O)c2O)C(=O)c2ccccc2C3=O)CC1)C(=O)O` (stereo not given), for which the inhibition at Pyruvate kinase PKLR [1] was -1%.

Take `O=C1c2ccccc2C(=O)c2c1cc(-c1ccc(O)cc1)c(O)c2O`: the inhibition against Pyruvate kinase PKLR [1] came to 39%.

Molecule `O=C(O)CC[C@H](NC(=O)C1CCCN(S(=O)(=O)c2cc3c(c(O)c2O)C(=O)c2ccccc2C3=O)C1)C(=O)O` (stereo not given in full) displayed an IC50 at Pyruvate kinase PKLR [3] of 1.3 µM. For the same molecule, the inhibition at Pyruvate kinase PKLR [1] came to 94%.

`O=C(O)c1cc2c(c(O)c1O)C(=O)c1ccccc1C2=O` displayed an IC50 against Pyruvate kinase PKLR [3] of 1.4 µM. The inhibition at Pyruvate kinase PKLR [1] turned out to be 94%.

As to `O=C1c2ccccc2C(=O)c2cc(S(=O)(=O)O)ccc21`, on Pyruvate kinase PKLR [1], the inhibition came to 45%.

At Pyruvate kinase PKLR [3], `O=C(O)CCNS(=O)(=O)c1cc2c(c(O)c1O)C(=O)c1ccccc1C2=O` gave an IC50 of 5.8 µM. Also, the inhibition against Pyruvate kinase PKLR [1] amounted to 102%.

Consider `O=C(O)CC(O)(CC(=O)N1CCN(S(=O)(=O)c2cc3c(c(O)c2O)C(=O)c2ccccc2C3=O)CC1)C(=O)O` (stereo not given), for which the IC50 against Pyruvate kinase PKLR [3] came to 0.2 µM. The inhibition on Pyruvate kinase PKLR [1] amounted to 100%.

`O=C(O)Cc1ccc(CNc2cc3c(cc2O)C(=O)c2ccccc2C3=O)cc1`: the inhibition on Pyruvate kinase PKLR [1] stood at 76%; against Pyruvate kinase PKLR [2] it was 41.1%.

For the molecule `O=C(O)Cc1ccc(CNC(=O)Nc2cc3c(c(O)c2O)C(=O)c2ccccc2C3=O)cc1C(=O)O`, the IC50 against Pyruvate kinase PKLR [3] turned out to be 1.7 µM. Further, the inhibition against Pyruvate kinase PKLR [1] is 61%; against Pyruvate kinase PKLR [2] it was 34%.

For `O=C1c2ccccc2C(=O)c2c1cc(S(=O)(=O)O)c(O)c2O` [Alizarin Red S], the IC50 against Pyruvate kinase PKLR [3] was determined as 0.2 µM. The figures for the inhibition against Pyruvate kinase PKLR [1] and on Pyruvate kinase PKLR [2] were 100% and 54%, respectively.

On Pyruvate kinase PKLR [3], `CSCCC(NS(=O)(=O)c1cc2c(c(O)c1O)C(=O)c1ccccc1C2=O)C(=O)O` (stereo not given) yielded an IC50 of 1.4 µM. For the same molecule, on Pyruvate kinase PKLR [1], the inhibition was found to be 78%.

`O=C(O)CNC(=O)CNS(=O)(=O)c1cc2c(c(O)c1O)C(=O)c1ccccc1C2=O` yielded an IC50 on Pyruvate kinase PKLR [3] of 4.1 µM. The inhibition on Pyruvate kinase PKLR [1] is 102%.

`O=C(O)Cc1ccc(CNc2cc3c(c(O)c2O)C(=O)c2ccccc2C3=O)cc1`: at Pyruvate kinase PKLR [3], the IC50 amounted to 3.8 µM. The values for the inhibition at Pyruvate kinase PKLR [1] and against Pyruvate kinase PKLR [2] were 96% and 82.5%, respectively.

Consider `CS(=O)(=O)c1cccc(-c2cc3c(c(O)c2O)C(=O)c2ccccc2C3=O)c1`, for which, at Pyruvate kinase PKLR [1], the inhibition was found to be 31%.

Take `O=C1c2ccccc2C(=O)c2c(O)cc(S(=O)(=O)O)cc21`: the IC50 against Pyruvate kinase PKLR [3] was 7.3 µM. At Pyruvate kinase PKLR [1], the inhibition was determined as 65%.

As for `O=C(O)CC[C@H](NC(=O)C1CCN(S(=O)(=O)c2cc3c(c(O)c2O)C(=O)c2ccccc2C3=O)CC1)C(=O)O`, the inhibition against Pyruvate kinase PKLR [1] was 45%.

Take `NS(=O)(=O)c1cccc(-c2cc3c(c(O)c2O)C(=O)c2ccccc2C3=O)c1`: the inhibition against Pyruvate kinase PKLR [1] is 66%.

`O=C(O)CNc1cc2c(cc1O)C(=O)c1ccccc1C2=O`: the inhibition at Pyruvate kinase PKLR [1] was 82%; on Pyruvate kinase PKLR [2] it was 82.7%.

In the case of `O=C1c2ccccc2C(=O)c2c1cc(S(=O)(=O)N1CCCC(C(=O)O)C1)c(O)c2O` (stereo not given), the IC50 against Pyruvate kinase PKLR [3] stood at 0.16 µM. The inhibition on Pyruvate kinase PKLR [1] worked out at 92%.

For the molecule `O=C(O)Cc1ccc(CNS(=O)(=O)c2cc3c(c(O)c2O)C(=O)c2ccccc2C3=O)cc1C(=O)O`, it took 0.3 µM to reach half-maximal inhibition on Pyruvate kinase PKLR [3] (IC50). For the same molecule, at Pyruvate kinase PKLR [1], the inhibition is 99%.

For the molecule `O=C1c2ccccc2C(=O)c2c1cc(S(=O)(=O)N1CCNCC1)c(O)c2O`, the IC50 at Pyruvate kinase PKLR [3] was 0.15 µM. Moreover, on Pyruvate kinase PKLR [1], the inhibition turned out to be 98%.

For `O=C(O)CC(Nc1cc2c(c(O)c1O)C(=O)c1ccccc1C2=O)C(=O)O` (stereo not given), the IC50 on Pyruvate kinase PKLR [3] is 2.5 µM. In addition, the values for the inhibition on Pyruvate kinase PKLR [1] and against Pyruvate kinase PKLR [2] were 90% and 83.5%, respectively.

As to `O=C(O)CC(O)(CC(=O)N1CCN(S(=O)(=O)c2cc(O)c3c(c2)C(=O)c2ccccc2C3=O)CC1)C(=O)O` (stereo not given), the inhibition against Pyruvate kinase PKLR [1] was found to be 3%.

`O=C(O)C[C@H](NC(=O)C1CCN(S(=O)(=O)c2cc3c(c(O)c2O)C(=O)c2ccccc2C3=O)CC1)C(=O)O`: at Pyruvate kinase PKLR [1], the inhibition came to 35%.

`O=C(O)CCCCNS(=O)(=O)c1cc2c(c(O)c1O)C(=O)c1ccccc1C2=O` yielded an IC50 at Pyruvate kinase PKLR [3] of 19 µM. For the same molecule, the inhibition against Pyruvate kinase PKLR [1] turned out to be 97%.

In the case of `O=C(O)C[C@H](NC(=O)C1CCCN(S(=O)(=O)c2cc3c(c(O)c2O)C(=O)c2ccccc2C3=O)C1)C(=O)O` (stereo not given in full), at Pyruvate kinase PKLR [3], the IC50 is 1.9 µM. The inhibition on Pyruvate kinase PKLR [1] worked out at 72%.

For `O=C(O)CNS(=O)(=O)c1cc2c(c(O)c1O)C(=O)c1ccccc1C2=O`, inhibition on Pyruvate kinase PKLR [3] was half-maximal at 0.2 µM (IC50). The inhibition against Pyruvate kinase PKLR [1] worked out at 100%.

Regarding `O=C1c2ccccc2C(=O)c2c1cc(S(=O)(=O)N1CCC(C(=O)O)CC1)c(O)c2O`, 4.8 µM corresponded to half-maximal inhibition against Pyruvate kinase PKLR [3] (IC50). Moreover, the inhibition on Pyruvate kinase PKLR [1] was determined as 87%.

Turning to `O=C1c2ccccc2C(=O)c2c1cc(S(=O)(=O)N[C@@H](CO)C(=O)O)c(O)c2O`, the IC50 against Pyruvate kinase PKLR [3] is 0.9 µM. The inhibition at Pyruvate kinase PKLR [1] came out at 97%.

For `Nc1c(S(=O)(=O)O)cc2c(c1O)C(=O)c1ccccc1C2=O`, the inhibition at Pyruvate kinase PKLR [1] came out at 77%.

`O=C(O)CNS(=O)(=O)c1cc2c(cc1O)C(=O)c1ccccc1C2=O`: the inhibition worked out at 86% at Pyruvate kinase PKLR [1] and 78.7% at Pyruvate kinase PKLR [2].

For `COc1c(S(=O)(=O)O)cc2c(c1OC)C(=O)c1ccccc1C2=O`, the inhibition against Pyruvate kinase PKLR [1] stood at 19%.

In turn, `O=C(O)CNC(=O)CNC(=O)CNS(=O)(=O)c1cc2c(c(O)c1O)C(=O)c1ccccc1C2=O` had an IC50 against Pyruvate kinase PKLR [3] of 0.7 µM. For the same molecule, the inhibition at Pyruvate kinase PKLR [1] came out at 92%.

On Pyruvate kinase PKLR [3], `O=C(O)CCCNS(=O)(=O)c1cc2c(c(O)c1O)C(=O)c1ccccc1C2=O` displayed a 50% inhibitory concentration (IC50) of 7.5 µM. In addition, the inhibition on Pyruvate kinase PKLR [1] was 101%.

`O=C1c2ccccc2C(=O)c2cc(S(=O)(=O)O)c(O)cc21` showed an IC50 against Pyruvate kinase PKLR [3] of 3.4 µM. Further, the inhibition against Pyruvate kinase PKLR [1] stood at 95%.

Consider `O=C1c2ccccc2C(=O)c2cc(S(=O)(=O)N3CCCC(C(=O)O)C3)c(O)cc21` (stereo not given), for which the figures for the inhibition against Pyruvate kinase PKLR [1] and against Pyruvate kinase PKLR [2] were 58% and 40.6%, respectively.

As to `O=C1c2ccccc2C(=O)c2c1cc(-c1ccc(O)c(O)c1)c(O)c2O`, the inhibition against Pyruvate kinase PKLR [1] came to 16%.

Take `O=C(O)Cc1ccc(CNC(=O)N2CCN(S(=O)(=O)c3cc4c(c(O)c3O)C(=O)c3ccccc3C4=O)CC2)cc1C(=O)O`: the IC50 at Pyruvate kinase PKLR [3] worked out at 0.29 µM. Further, the inhibition against Pyruvate kinase PKLR [1] was 99%.

With `O=C(O)Cc1ccc(CNc2cc3c(c(O)c2O)C(=O)c2ccccc2C3=O)cc1C(=O)O`, at Pyruvate kinase PKLR [3], the 50% inhibitory concentration (IC50) was 1.3 µM. Also, the inhibition was found to be 79% against Pyruvate kinase PKLR [1] and 79.3% against Pyruvate kinase PKLR [2].

As for `O=C(O)CC[C@H](NC(=O)N1CCN(S(=O)(=O)c2cc3c(c(O)c2O)C(=O)c2ccccc2C3=O)CC1)C(=O)O`, the IC50 on Pyruvate kinase PKLR [3] amounted to 0.55 µM. Besides, the inhibition against Pyruvate kinase PKLR [1] worked out at 99%.

For the molecule `O=C1c2ccccc2C(=O)c2c1ccc(O)c2O`, at Pyruvate kinase PKLR [1], the inhibition amounted to 51%.

Regarding `O=C(O)CC(Nc1cc2c(cc1O)C(=O)c1ccccc1C2=O)C(=O)O` (stereo not given), the results for the inhibition at Pyruvate kinase PKLR [1] and against Pyruvate kinase PKLR [2] were 57% and 59.7%, respectively.

In the case of `O=C1c2ccccc2C(=O)c2c1cc(S(=O)(=O)N1CCCC(C(=O)N[C@@H](Cc3c[nH]cn3)C(=O)O)C1)c(O)c2O` (stereo not given in full), the inhibition against Pyruvate kinase PKLR [1] worked out at 27%.
